Experimental data taken from patent publication US20220087952A1, “ANTI-APICOMPLEXAN COMPOSITIONS” (priority 2019, published 2022).

Assays:
[1] = test system: Eimeria arloingi oocyst extracted from goat feces; assay: In-vitro oocyst sporulation assay (Example 2); assay type: cell-based; settings: in Capra hircus, read-out: sporulation impairment (inhibition of sporulation) compared to control
Experimental: Eimeria-infected feces were collected from goats and stored at 4° C. Later, 3 grams of feces were mixed with 42 ml of tap water. The sample was homogenized and passed through a mesh, after which the filtered liquid was collected into 50 ml tubes. The liquid was then washed three times with cold tap water and centrifuged (1,700 G, 5 minutes, 20° C.). In each wash, the supernatant was carefully removed and approximately 30 to 40 ml of cold water was added. After the last wash, the water was removed and replaced with saturated sugar flotation solution (500 gr sucrose in 320 ml double distilled water), wherein each tube was filled with up to 45 ml of the sugar flotation solution. Each tube was centrifuged twice, wherein after each round of centrifugation, the ring-shaped phase formed on the top of the sugar solution was collected (about 1-2 ml collected after each round) and preserved in a 50 ml plastic tube.
The plastic tube was filled with cold water and centrifuged again. Oocysts were found in the sediment after centrifugation. The water was gently removed and the concentration of the oocysts was evaluated. The oocysts were then stored at 4° C. until use (the use of unsporulated oocysts that are older than two weeks was avoided). It is noted that a 2% potassium dichromate solution may be used for conservation. The unsporulated oocytes were washed in cold phosphate buffered saline (PBS, X10) before use in order to remove potassium dichromate (if used). The concentration of the oocysts was adjusted to approximately 30,000/ml.
Extract was prepared according to Example 1 above. Extract can be mixed with Phosphate buffer saline (PBS, X1, w:w, 1:10) if not perfectly soluble in water.
Each assay was in triplicates for each concentration of extract and gallic acid purchased at Sigma. In addition, six concentrations of gallic acid (50, 150, 250, 350, 450, 550 ppm) were added to 2000 and 4000 ppm of the invention extract to check synergism of gallic acid and the extract on impairment of sporulation. […]

[2] = test system: Eimeria spp. (Paracox 5 at twenty-fold dose); assay: Eimeria-infected chicks given supplemented drinking water (Example 5); assay type: in vivo; settings: for Body weight of chicks (Means ± SE) / Average daily gain / Oocyst counts in droppings: C uninfected, T infected, AS % antisolvent, GA ppm gallic acid in water
Experimental: 160 chicks allotted to 8 treatments, encompassing two groups of uninfected birds and six groups of Eimeria-infected birds, were tested. Birds were administered water treatment from 7 days of age and infected when 10-days old.
Inoculation was individually, per os, by using a dose of Paracox 5, a live attenuated anticoccidial vaccine including administered at the twenty-fold the recommended dose (Table 2), in a volume of 1 ml, when chicks were 10 days old. Uninfected birds were given the same volume of saline. Eimeria spp were as in Table 2.
(§1) Water was supplied in 3-liter poultry troughs that were re-filled when needed. Tap water was initially given and water supplementation was initiated three days after chicks' arrival. Water treatments for the uninfected (C) birds were no antisolvent and no gallic acid (C_AS0%_GA0) and 1% antisolvent with 500 ppm of gallic acid (C_AS1%_GA500).
(§2) Water treatments for the infected (T) birds were bi-factorial with 3 levels of antisolvent (AS; 0, 0.5, and 1%) and two levels of gallic acid (GA; 0 and 500 ppm) resulting in 6 groups: […], T_AS0.5%_GA0, T_AS1%_GA0, T_AS0.5%_GA0, T_AS0.5% _GA500, and T_AS1%_GA500.
(§3) Birds were wing-tagged and weighed on infection day and then, 7 days after infection. Half of the birds were weighed and humanely euthanized by exposure to CO2 on day 14 after infection and the second half on day 17 after infection. Water intake was recorded. Droppings were collected from a 1 m^2 paper sheet placed in each group 12 h before each weighing and kept at 4° C. until oocysts were counted under a grated microscope at ×100 and ×400 at days 0, and 7.
No existing method, based on mono-species Eimeria infection, was satisfactory. The duodenum was examined at three sites (proximal, medial, distal) and a separate score was recorded for each. In contrast, only one score was recorded for the ileum-jejunum, and one for the caeca. Organ scores were termed D (average of 3 sites along the duodenum), J, and C. Three composite scores were established: a. sum of the average duodenal score, the jejunal score and the caecal score; b. sum of the maximal duodenal, jejunal and caecal scores; c. number of lesion-affected organs (1-3).
Data for body weight (BW) and average daily gain was log-transformed in order to homogenize variances. The C_AS0%_GA0 and […] in order to assess the effect of infection. The C_AS0%_GA0 and the C_AS1%_GA500 were compared to evaluate possible toxicity due to water treatment. All groups encompassing bi-factorial levels of AS and GA were compared by bi-factorial ANOVA.
For the analysis of lesions, for each treatment and slaughter day, the Wilcoxon Rank Sum Test was run. Then, using the Iman-Connover method, a rank transformation was done on original data and a two-way ANOVA was run on the ranked data. The treatment x day interaction was significant for J. Sum DJC, and #organs affected and Pairwise comparisons were made by Tukey test.

[3] = Water intake and toxicity of supplemented drinking water in chicks (Example 5); assay type: in vivo
Description: as §1, §2, §3
Data for body weight (BW) and average daily gain was log-transformed in order to homogenize variances. The C_AS0%_GA0 and […] in order to assess the effect of infection. The C_AS0%_GA0 and the C_AS1%_GA500 were compared to evaluate possible toxicity due to water treatment. […]

[4] = test system: Eimeria spp. (Paracox 5 at twenty-fold dose); assay: Eimeria-infected chicks given supplemented drinking water (Example 5); assay type: in vivo; settings: d 14 relative to infection day; C uninfected, T infected; AS % antisolvent, GA ppm gallic acid in water

O=C(O)c1cc(O)c(O)c(O)c1 [Gallic acid, gallic acid]
inhibition at 50 µg/mL [1]: 25% | Body weight of chicks (Means ± SE) ([2]; D 17 relative to infection day): 1290.0 ± 83.4 ab | Average daily gain ([2]; Days 0-7): 32.9 ± 1.4 g/day | Average daily gain ([2]; Days 8-14): 53.2 ± 2.5 g/day | Average daily gain ([2]; Days 14-17): 99.9 ± 6.2 g/day | Body weight of chicks (Means ± SE) ([2]; d 0 relative to infection day): 168.9 ± 4.3 | Oocyst counts in droppings ([2]; d 0 relative to infection day): 0 gr^−1 | Body weight of chicks (Means ± SE) ([2]; d 7 relative to infection day): 399.5 ± 13.4 a | Oocyst counts in droppings ([2]; d 7 relative to infection day): 10,650 gr^−1 | Body weight of chicks (Means ± SE) ([2]; d 14 relative to infection day): 984.4 ± 40.1 ab | growth performance / body weight of Eimeria-infected birds, in words ([2]; water treatment from 7 days of age, infection at 10 days, dose in label): no advantage in adding gallic acid if an AS treatment was given | Water intake ([3]; code: C uninfected, T infected, AS % antisolvent (0.5% = 5,000 ppm, 1% = 10,000 ppm), GA ppm gallic acid in water): 132 ml chick^−1 dr^−1 | signs of toxicity ([3]; in vivo): No signs of toxicity whatsoever | Oocyst counts in droppings [4]: 3,600 gr^−1

O=C(O)/C=C/c1ccc(O)c(O)c1 [caffeic acid, Caffeic acid]
inhibition at 50 µg/mL [1]: 43%

COc1cc(C(=O)O)ccc1O [vanillic acid]
inhibition at 50 µg/mL [1]: 23%
